Tests used:
RPMI-8226 = experiment: Growth inhibition of human RPMI8226 cells at 10 uM incubated for 48 hrs by sulforhodamine B assay relative to control; assay type: functional; details: RPMI-8226, 48 h, read-out: GI
UACC-62 = experiment: Growth inhibition of human UACC62 cells at 10 uM incubated for 48 hrs by sulforhodamine B assay relative to control; assay type: functional; details: UACC-62, 48 h, read-out: GI
NCI-H522 = experiment: Growth inhibition of human NCI-H522 cells at 10 uM incubated for 48 hrs by sulforhodamine B assay relative to control; assay type: functional; details: NCI-H522, 48 h, read-out: GI
UO-31 = experiment: Growth inhibition of human UO31 cells at 10 uM incubated for 48 hrs by sulforhodamine B assay relative to control; assay type: functional; details: UO-31, 48 h, read-out: GI
MCF7 [1] = experiment: Growth inhibition of human MCF7 cells at 10 uM incubated for 48 hrs by sulforhodamine B assay relative to control; assay type: functional; details: MCF7, 48 h, read-out: GI
NCI-H23 = experiment: Growth inhibition of human NCI-H23 cells at 10 uM incubated for 48 hrs by sulforhodamine B assay relative to control; assay type: functional; details: NCI-H23, 48 h, read-out: GI
IGROV-1 = experiment: Growth inhibition of human IGROV1 cells at 10 uM incubated for 48 hrs by sulforhodamine B assay relative to control; assay type: functional; details: IGROV-1, 48 h, read-out: GI
T47D [2] = experiment: Growth inhibition of human T47D cells at 10 uM incubated for 48 hrs by sulforhodamine B assay relative to control; assay type: functional; details: read-out: GI
[3] = target: Vascular endothelial growth factor receptor 2 (Homo sapiens, UniProt P35968); experiment: Inhibition of human N-terminal GST tagged VEGFR-2 expressed in baculovirus infected Sf9 cells using poly (Glu,Tyr) 4:1 as substrate in presence of ATP by Kinase-Glo luminescence assay
Chain of Vascular endothelial growth factor receptor 2 (P35968 whole entry): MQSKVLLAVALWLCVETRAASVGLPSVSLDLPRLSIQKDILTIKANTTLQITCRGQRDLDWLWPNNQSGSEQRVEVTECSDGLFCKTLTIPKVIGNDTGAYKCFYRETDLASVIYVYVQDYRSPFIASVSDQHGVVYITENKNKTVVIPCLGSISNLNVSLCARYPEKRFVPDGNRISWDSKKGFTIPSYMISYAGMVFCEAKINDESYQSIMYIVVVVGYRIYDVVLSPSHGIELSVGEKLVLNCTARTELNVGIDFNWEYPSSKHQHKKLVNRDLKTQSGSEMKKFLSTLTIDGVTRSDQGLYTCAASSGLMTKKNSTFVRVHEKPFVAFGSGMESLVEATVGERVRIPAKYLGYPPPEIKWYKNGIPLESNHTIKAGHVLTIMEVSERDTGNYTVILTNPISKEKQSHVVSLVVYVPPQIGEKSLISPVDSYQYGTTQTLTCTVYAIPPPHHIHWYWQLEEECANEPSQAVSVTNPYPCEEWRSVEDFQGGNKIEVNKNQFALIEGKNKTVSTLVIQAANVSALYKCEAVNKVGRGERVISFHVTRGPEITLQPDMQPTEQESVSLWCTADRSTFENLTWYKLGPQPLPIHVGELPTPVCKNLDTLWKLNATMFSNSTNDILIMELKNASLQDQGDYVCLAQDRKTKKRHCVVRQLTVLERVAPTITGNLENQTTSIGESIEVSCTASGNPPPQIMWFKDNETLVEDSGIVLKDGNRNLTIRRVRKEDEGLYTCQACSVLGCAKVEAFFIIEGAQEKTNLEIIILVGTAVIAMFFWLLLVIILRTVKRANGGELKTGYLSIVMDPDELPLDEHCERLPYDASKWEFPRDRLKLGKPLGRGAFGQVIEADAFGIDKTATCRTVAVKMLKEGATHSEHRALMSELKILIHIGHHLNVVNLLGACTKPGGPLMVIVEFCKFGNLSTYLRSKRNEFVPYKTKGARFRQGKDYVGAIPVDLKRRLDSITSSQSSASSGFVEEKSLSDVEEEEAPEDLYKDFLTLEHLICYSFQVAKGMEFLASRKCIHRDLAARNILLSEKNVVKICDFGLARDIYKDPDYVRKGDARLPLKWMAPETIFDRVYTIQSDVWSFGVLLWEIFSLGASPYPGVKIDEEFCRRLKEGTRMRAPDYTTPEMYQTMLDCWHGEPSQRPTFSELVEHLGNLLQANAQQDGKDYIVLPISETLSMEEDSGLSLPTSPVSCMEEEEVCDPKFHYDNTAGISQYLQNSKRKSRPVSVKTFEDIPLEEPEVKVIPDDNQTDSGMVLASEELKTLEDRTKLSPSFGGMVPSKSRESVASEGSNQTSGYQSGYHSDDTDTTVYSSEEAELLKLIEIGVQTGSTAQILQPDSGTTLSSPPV

NCI-H226 = experiment: Growth inhibition of human NCI-H226 cells at 10 uM incubated for 48 hrs by sulforhodamine B assay relative to control; assay type: functional; details: NCI-H226, 48 h, read-out: GI
RXF 393 = experiment: Growth inhibition of human RXF393 cells at 10 uM incubated for 48 hrs by sulforhodamine B assay relative to control; assay type: functional; details: RXF 393, 48 h, read-out: GI
CCRF-CEM = experiment: Growth inhibition of human CCRF-CEM cells at 10 uM incubated for 48 hrs by sulforhodamine B assay relative to control; assay type: functional; details: read-out: GI
SK-MEL-5 = experiment: Growth inhibition of human SK-MEL-5 cells at 10 uM incubated for 48 hrs by sulforhodamine B assay relative to control; assay type: functional; details: SK-MEL-5, 48 h, read-out: GI
CAKI-1 = experiment: Growth inhibition of human Caki1 cells at 10 uM incubated for 48 hrs by sulforhodamine B assay relative to control; assay type: functional; details: CAKI-1, 48 h, read-out: GI
K562 = experiment: Growth inhibition of human K562 cells at 10 uM incubated for 48 hrs by sulforhodamine B assay relative to control; assay type: functional; details: K562, 48 h, read-out: GI
MDA-MB-468 = experiment: Growth inhibition of human MDA-MB-468 cells at 10 uM incubated for 48 hrs by sulforhodamine B assay relative to control; assay type: functional; details: MDA-MB-468, 48 h, read-out: GI
LOX IMVI = experiment: Growth inhibition of human LOXIMVI cells at 10 uM incubated for 48 hrs by sulforhodamine B assay relative to control; assay type: functional; details: read-out: GI
NCI/ADR-RES = experiment: Growth inhibition of human NCI/ADR-RES cells at 10 uM incubated for 48 hrs by sulforhodamine B assay relative to control; assay type: functional; details: read-out: GI
HCT-116 = experiment: Growth inhibition of human HCT116 cells at 10 uM incubated for 48 hrs by sulforhodamine B assay relative to control; assay type: functional; details: HCT-116, 48 h, read-out: GI
MDA-MB-231 = experiment: Growth inhibition of human MDA-MB-231 cells at 10 uM incubated for 48 hrs by sulforhodamine B assay relative to control; assay type: functional; details: MDA-MB-231, 48 h, read-out: GI
OVCAR-4 = experiment: Growth inhibition of human OVCAR4 cells at 10 uM incubated for 48 hrs by sulforhodamine B assay relative to control; assay type: functional; details: OVCAR-4, 48 h, read-out: GI
PC-3 = experiment: Growth inhibition of human PC3 cells at 10 uM incubated for 48 hrs by sulforhodamine B assay relative to control; assay type: functional; details: PC-3, 48 h, read-out: GI
MCF7 [4] = experiment: Cytotoxicity against human MCF7 cells expressing VEGFR2 and wild type BRAF measured after 48 hrs by sulforhodamine B assay; assay type: functional, cell-based; details: MCF7, 48 h
T47D [5] = experiment: Cytotoxicity against human T47D cells expressing wild type BRAF measured after 48 hrs by sulforhodamine B assay; assay type: functional, cell-based
MCF7 [6] = experiment: Inhibition of VEGFR2 level in human MCF7 cells at 10 uM measured after 48 hrs by ELISA relative to control; assay type: functional; details: MCF7, 48 h
OVCAR-8 = experiment: Growth inhibition of human OVCAR8 cells at 10 uM incubated for 48 hrs by sulforhodamine B assay relative to control; assay type: functional; details: OVCAR-8, 48 h, read-out: GI
ACHN = experiment: Growth inhibition of human ACHN cells at 10 uM incubated for 48 hrs by sulforhodamine B assay relative to control; assay type: functional; details: read-out: GI
[7] = target: Serine/threonine-protein kinase B-raf (Homo sapiens, UniProt P15056); experiment: Inhibition of human wild type BRAF by Kinase-Glo luminescence assay
Chain of Serine/threonine-protein kinase B-raf (P15056 whole entry): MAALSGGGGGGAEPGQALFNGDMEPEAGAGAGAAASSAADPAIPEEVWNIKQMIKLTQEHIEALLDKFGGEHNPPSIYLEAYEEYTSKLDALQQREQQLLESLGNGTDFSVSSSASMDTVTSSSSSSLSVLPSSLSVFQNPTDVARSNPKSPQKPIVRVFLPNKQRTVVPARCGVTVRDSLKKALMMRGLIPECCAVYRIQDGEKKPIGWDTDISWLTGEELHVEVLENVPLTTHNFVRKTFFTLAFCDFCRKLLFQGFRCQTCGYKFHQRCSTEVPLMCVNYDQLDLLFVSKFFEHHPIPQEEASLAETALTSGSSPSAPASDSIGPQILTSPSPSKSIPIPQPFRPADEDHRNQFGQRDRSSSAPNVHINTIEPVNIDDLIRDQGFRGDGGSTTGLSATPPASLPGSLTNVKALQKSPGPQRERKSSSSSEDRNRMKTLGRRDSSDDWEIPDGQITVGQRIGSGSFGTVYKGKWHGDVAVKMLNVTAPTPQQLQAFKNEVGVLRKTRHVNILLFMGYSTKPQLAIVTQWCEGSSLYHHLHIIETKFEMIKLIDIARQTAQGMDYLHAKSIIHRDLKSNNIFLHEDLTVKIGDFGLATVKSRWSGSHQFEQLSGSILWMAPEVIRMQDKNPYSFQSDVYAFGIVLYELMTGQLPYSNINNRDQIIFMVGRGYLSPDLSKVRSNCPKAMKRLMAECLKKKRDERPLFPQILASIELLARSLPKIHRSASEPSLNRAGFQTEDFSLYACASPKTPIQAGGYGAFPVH

MOLT-4 = experiment: Growth inhibition of human MOLT4 cells at 10 uM incubated for 48 hrs by sulforhodamine B assay relative to control; assay type: functional; details: MOLT-4, 48 h, read-out: GI
HL-60(TB) = experiment: Growth inhibition of human HL-60(TB) cells at 10 uM incubated for 48 hrs by sulforhodamine B assay relative to control; assay type: functional; details: HL-60, 48 h, read-out: GI
SK-OV-3 = experiment: Growth inhibition of human SKOV3 cells at 10 uM incubated for 48 hrs by sulforhodamine B assay relative to control; assay type: functional; details: SK-OV-3, 48 h, read-out: GI
SN12C = experiment: Growth inhibition of human SN12C cells at 10 uM incubated for 48 hrs by sulforhodamine B assay relative to control; assay type: functional; details: read-out: GI
A549 = experiment: Growth inhibition of human A549/ATCC cells at 10 uM incubated for 48 hrs by sulforhodamine B assay relative to control; assay type: functional; details: A549, 48 h, read-out: GI
SF-295 = experiment: Growth inhibition of human SF295 cells at 10 uM incubated for 48 hrs by sulforhodamine B assay relative to control; assay type: functional; details: SF-295, 48 h, read-out: GI
U-251 = experiment: Growth inhibition of human U251 cells at 10 uM incubated for 48 hrs by sulforhodamine B assay relative to control; assay type: functional; details: U-251, 48 h, read-out: GI
Hs-578T = experiment: Growth inhibition of human Hs578T cells at 10 uM incubated for 48 hrs by sulforhodamine B assay relative to control; assay type: functional; details: read-out: GI
SNB-75 = experiment: Growth inhibition of human SNB75 cells at 10 uM incubated for 48 hrs by sulforhodamine B assay relative to control; assay type: functional; details: SNB-75, 48 h, read-out: GI
EKVX = experiment: Growth inhibition of human EKVX cells at 10 uM incubated for 48 hrs by sulforhodamine B assay relative to control; assay type: functional; details: read-out: GI
HOP-62 = experiment: Growth inhibition of human HOP62 cells at 10 uM incubated for 48 hrs by sulforhodamine B assay relative to control; assay type: functional; details: HOP-62, 48 h, read-out: GI
SNB-19 = experiment: Growth inhibition of human SNB19 cells at 10 uM incubated for 48 hrs by sulforhodamine B assay relative to control; assay type: functional; details: SNB-19, 48 h, read-out: GI
SF-539 = experiment: Growth inhibition of human SF539 cells at 10 uM incubated for 48 hrs by sulforhodamine B assay relative to control; assay type: functional; details: SF-539, 48 h, read-out: GI
A498 = experiment: Growth inhibition of human A498 cells at 10 uM incubated for 48 hrs by sulforhodamine B assay relative to control; assay type: functional; details: A498, 48 h, read-out: GI
SF-268 = experiment: Growth inhibition of human SF268 cells at 10 uM incubated for 48 hrs by sulforhodamine B assay relative to control; assay type: functional; details: SF-268, 48 h, read-out: GI

Compound	inhibition of growth at 10 µM (RPMI-8226) [%]	inhibition of growth at 10 µM (UACC-62) [%]	inhibition of growth at 10 µM (NCI-H522) [%]	inhibition of growth at 10 µM (UO-31) [%]	inhibition of growth at 10 µM (MCF7 [1]) [%]	inhibition of growth at 10 µM (NCI-H23) [%]	inhibition of growth at 10 µM (IGROV-1) [%]	inhibition of growth at 10 µM (T47D [2]) [%]	IC50 [3] [µM]	inhibition of growth at 10 µM (NCI-H226) [%]	inhibition of growth at 10 µM (RXF 393) [%]	inhibition of growth at 10 µM (CCRF-CEM) [%]	inhibition of growth at 10 µM (SK-MEL-5) [%]	inhibition of growth at 10 µM (CAKI-1) [%]	inhibition of growth at 10 µM (K562) [%]	inhibition of growth at 10 µM (MDA-MB-468) [%]	inhibition of growth at 10 µM (MDA-MB-231) [%]	inhibition of growth at 10 µM (PC-3) [%]	IC50 (MCF7 [4]) [µM]	inhibition of growth at 10 µM (ACHN) [%]	further results
COc1ccc(C(=O)CSc2nccc(Nc3ccc(N4CCOCC4)cc3)n2)cc1	45	30	34	35	17	15	12	67	0.29	13	10	21	53	16	21	13	11	16	23	11	inhibition of growth at 10 µM (LOX IMVI): 11%; inhibition of growth at 10 µM (NCI/ADR-RES): 24%; inhibition of growth at 10 µM (HCT-116): 18%; inhibition of growth at 10 µM (OVCAR-4): 15%; IC50 (T47D [5]): 4.36 µM; inhibition at 10 µM (MCF7 [6]): 52%; inhibition of growth at 10 µM (OVCAR-8): 24%; IC50 [7]: 0.44 µM; inhibition of growth at 10 µM (MOLT-4): 34%
CC(=O)c1cccc(Nc2ccnc(SCC(=O)c3ccc(C(F)(F)F)cc3)n2)c1	31	29	27	57	26	21	44	37	> 10	24	11	10	14	42	29	16	22	30	28.2	19	inhibition of growth at 10 µM (HL-60(TB)): < 10%; inhibition of growth at 10 µM (SK-OV-3): 21%; inhibition of growth at 10 µM (SN12C): 17%; inhibition of growth at 10 µM (A549): 12%; inhibition of growth at 10 µM (SF-295): 15%; inhibition of growth at 10 µM (U-251): 12%; inhibition of growth at 10 µM (Hs-578T): 11%; inhibition of growth at 10 µM (LOX IMVI): 13%; inhibition of growth at 10 µM (NCI/ADR-RES): 11%; inhibition of growth at 10 µM (HCT-116): 28%; inhibition of growth at 10 µM (SNB-75): 32%; inhibition of growth at 10 µM (EKVX): 28%; IC50 (T47D [5]): 17.1 µM; inhibition of growth at 10 µM (HOP-62): 17%; inhibition of growth at 10 µM (SNB-19): 10%; inhibition of growth at 10 µM (MOLT-4): 24%
O=C(CSc1nccc(Nc2ccc(N3CCOCC3)cc2)n1)c1ccc(Cl)cc1	10	10	22	26		19	17		1.9	13		13		23	10	19	10	12	73.3	10	inhibition of growth at 10 µM (SF-539): 15%; inhibition of growth at 10 µM (A498): 13%; inhibition of growth at 10 µM (SF-268): 15%; inhibition of growth at 10 µM (SNB-75): 36%; inhibition of growth at 10 µM (EKVX): 10%; inhibition of growth at 10 µM (HOP-62): 37%; inhibition of growth at 10 µM (OVCAR-8): 17%; inhibition of growth at 10 µM (SNB-19): 19%
